Source: patent US12435061B2 (priority 2020, dated 2025)
Values after ≈ are worked out from the molar mass of the structure shown. Where two headings read alike, the source gives them in different places.

Columns and labels:
[1] = Aqueous solubility assay in Normal Ringer Solution; settings: Normal Ringer Solution; for solubility at 40 min: saline or isotonic, kinetic from dmso stock
Experimental: Following vortex and incubation for a sufficient time (e.g. 40 minutes at room temperature), solutions were filtered, quenched with acetonitrile, and analyzed by Liquid Chromotography. Solubility Limits were determined by comparison to a standard curve.

[2] = Metabolic Stability assay, rat liver microsomes; assay type: in vitro ADME
Experimental: Metabolic Stability assay: The metabolic stability was determined by adding compound dissolved in DMSO to human or rat, liver microsomes. Briefly, assays were run with a starting concentration of 1 μM test article. The reaction was started by addition of NADPH regeneration components at 37° C. at which time an aliquot was immediately quenched in ice-cold acetonitrile/MeOH/H2O solution. Reaction mixture was incubated at 37° C. on a shaker, and additional aliquots were taken at 7, 15, 30 and 60 minutes. Following quench and centrifugation, samples were analyzed on HPLC/MS/MS.

hTRPV3 = hTRPV3 (Homo sapiens (Human), UniProt Q8NET8); test: Whole-cell patch clamp, hTRPV3 Phase 1 / Phase 2 currents; assay type: cell-based
hTRPV3, sequence (Q8NET8 whole entry): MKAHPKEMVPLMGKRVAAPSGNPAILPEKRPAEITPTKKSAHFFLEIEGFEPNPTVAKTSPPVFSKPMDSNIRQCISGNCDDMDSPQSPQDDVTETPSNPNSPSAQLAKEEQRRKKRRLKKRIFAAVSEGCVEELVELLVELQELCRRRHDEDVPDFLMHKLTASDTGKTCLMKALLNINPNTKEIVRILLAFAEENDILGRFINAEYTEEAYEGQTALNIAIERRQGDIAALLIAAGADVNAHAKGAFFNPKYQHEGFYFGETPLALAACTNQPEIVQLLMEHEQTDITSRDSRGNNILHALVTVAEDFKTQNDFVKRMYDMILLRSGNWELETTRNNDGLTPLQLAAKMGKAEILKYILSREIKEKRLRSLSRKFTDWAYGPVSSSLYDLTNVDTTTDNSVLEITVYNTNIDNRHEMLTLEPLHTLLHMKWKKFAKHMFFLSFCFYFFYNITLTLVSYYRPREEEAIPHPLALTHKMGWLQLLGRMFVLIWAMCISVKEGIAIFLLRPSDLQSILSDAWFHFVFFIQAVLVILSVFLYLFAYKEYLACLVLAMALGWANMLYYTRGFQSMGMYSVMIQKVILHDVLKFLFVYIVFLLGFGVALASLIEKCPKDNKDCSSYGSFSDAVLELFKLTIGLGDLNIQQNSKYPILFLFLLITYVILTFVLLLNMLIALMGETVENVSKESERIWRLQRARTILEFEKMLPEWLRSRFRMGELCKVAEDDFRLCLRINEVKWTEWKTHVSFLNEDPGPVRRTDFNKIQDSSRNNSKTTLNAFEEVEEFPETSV
Method in brief: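 Currents are activated by 20 μM 2-APB or by perfusate at 28 °C or warmer, in Ringer's solution, and quantified at ±80 mV.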

[3] = Phase 1 current, inward, whole-cell patch clamp, read-out: hTRPV3 Patch P1 Inwd
[4] = Phase 1 current, read-out: hTRPV3 (nM) (Phase 1)
[5] = Phase 2 current, inward, whole-cell patch clamp, read-out: hTRPV3 Patch P2 Inwd
[6] = Phase 2 current, read-out: hTRPV3 (nM) (Phase 2)
[7] = Phase 1 current, human TRPV3, read-out: hTRPV3 (nM) Phase 1

Compound | half-life at 1 μM ([2]; read-out: LM T1/2 (min) (rat)) | IC50 (hTRPV3; [3]) | IC50 (hTRPV3; [4]) | solubility at 40 min [1] | half-life at 1 μM ([2]; read-out: LM T1/2 (min) rat) | IC50 (hTRPV3; [7]) | other results
Oc1cc(-c2ccccc2Cl)ccc1N1CC[C@@H](Oc2ccc(C(F)(F)F)cn2)C1 [Compound 1-113, (R)-2′-chloro-4-(3-(5-(trifluoromethyl)pyridin-2-yloxy)pyrrolidin-1-yl)biphenyl-3-ol] | 33.5 min | 100 to 1000 nM | ~97.5 nM |  |  |  | Solubility Ringer (nM) ([1]; room temperature): BLQ; IC50 (hTRPV3; [5]): 100 to 1000 nM; IC50 (hTRPV3; [6]): 109 nM
OCCOc1cc(-c2ccccc2)ccc1N1CC[C@@H](Oc2ccc(C(F)(F)F)cn2)C1 [Compound 1-117, (R)-2-(4-(3-(5-(trifluoromethyl)pyridin-2-yloxy)pyrrolidin-1-yl)biphenyl-3-yloxy)ethanol] | 79.8 min | > 1000 nM | 1920 nM | ~2 µM (≈ 0.889 µg/mL) |  |  | IC50 (hTRPV3; [5]): 100 to 1000 nM; IC50 (hTRPV3; [6]): 486 nM
OCCOc1cc(-c2ccccc2Cl)ccc1N1CC[C@H](Oc2ccc(C(F)(F)F)cn2)C1 [Compound 1-133, (S)-2-(2′-chloro-4-(3-(5-(trifluoromethyl)pyridin-2-yloxy)pyrrolidin-1-yl)biphenyl-3-yloxy)ethanol] | 55 min | > 1000 nM | 1120 nM | 0.56 µM (≈ 0.268 µg/mL) |  |  | 
NC(=O)c1cc(C(=O)c2ccccc2)ccc1N1CC[C@H](Oc2ncccc2Cl)C1 [Compound 1-136, (S)-5-benzoyl-2-(3-(3-chloropyridin-2-yloxy)pyrrolidin-1-yl)benzamide] | 19.7 min |  |  | > 15 µM |  |  | IC50 (hTRPV3; hTRPV3 Patch P1 Inwd (nM)): > 1000 nM; IC50 (hTRPV3; hTRPV3 Patch P2 Inwd (nM)): > 1000 nM; IC50 (hTRPV3; read-out: hTRPV3 (nM) (Phase 1)): 1620 nM; IC50 (hTRPV3; read-out: hTRPV3 (nM) (Phase 2)): 1670 nM
Cc1ccc(O[C@H]2CCN(c3ccc(-c4ccccc4)cc3CO)C2)nc1 [Compound 1-141, (S)-(4-(3-(5-methylpyridin-2-yloxy)pyrrolidin-1-yl)biphenyl-3-yl)methanol] | 38.4 min | 100 to 1000 nM | 125 nM | ~0.97 µM (≈ 0.35 µg/mL) |  |  | 
OCCc1cc(-c2ccccc2)ccc1N1CC[C@H](Oc2ccc(C(F)(F)F)cn2)C1 [Compound 1-142, (S)-2-(4-(3-(5-(trifluoromethyl)pyridin-2-yloxy)pyrrolidin-1-yl)biphenyl-3-yl)ethanol] | 65.2 min | 100 to 1000 nM | 275 nM |  |  |  | Solubility Ringer (nM) ([1]; room temperature): BLQ
COc1ccccc1-c1ccc(N2CC[C@H](Oc3ccc(C(F)(F)F)cn3)C2)c(CO)c1 [Compound 1-151, (S)-(2′-methoxy-4-(3-(5-(trifluoromethyl)pyridin-2-yloxy)pyrrolidin-1-yl)biphenyl-3-yl)methanol] | 38.9 min | 100 to 1000 nM | 125 nM |  |  |  | Solubility Ringer (nM) ([1]; room temperature): BLQ
CC(=O)c1ccccc1-c1ccc(N2CC[C@H](Oc3ccc(C(F)(F)F)cn3)C2)c(CO)c1 [Compound 1-157, (S)-1-(3′-(hydroxymethyl)-4′-(3-(5-(trifluoromethyl)pyridin-2-yloxy)pyrrolidin-1-yl)biphenyl-2-yl)ethanone] | 17.5 min | 100 to 1000 nM | 211 nM | ~1.8 µM (≈ 0.822 µg/mL) |  |  | 
COCc1ccccc1-c1ccc(N2CC[C@H](Oc3ccc(C(F)(F)F)cn3)C2)c(CO)c1 [Compound 1-160, (S)-(2′-(methoxymethyl)-4-(3-(5-(trifluoromethyl)pyridin-2-yloxy)pyrrolidin-1-yl)biphenyl-3-yl)methanol] | 19.1 min | 10 to 100 nM | 71.6 nM | ~0.4 µM (≈ 0.183 µg/mL) |  |  | IC50 (hTRPV3; [5]): 100 to 1000 nM; IC50 (hTRPV3; [6]): 106 nM
O=C(CO)c1cc(-c2ccccc2)ccc1N1CC[C@H](Oc2ccc(C(F)(F)F)cn2)C1 [Compound 1-178, (S)-2-hydroxy-1-(4-(3-(5-(trifluoromethyl)pyridin-2-yloxy)pyrrolidin-1-yl)biphenyl-3-yl)ethanone] | 66.5 min |  |  | ~0.2 µM (≈ 0.0885 µg/mL) |  |  | IC50 (hTRPV3; [5]): 100 to 1000 nM; IC50 (hTRPV3; [6]): 146 nM
COc1ccccc1Oc1ccc(N2CC[C@H](Oc3ccc(C)cn3)C2)c(CO)n1 [Compound 1-205, (S)-(6-(2-methoxyphenoxy)-3-(3-(5-methylpyridin-2-yloxy)pyrrolidin-1-yl)pyridin-2-yl)methanol] | 16 min | > 1000 nM | ~3000 nM | > 7.2 µM |  |  | IC50 (hTRPV3; [5]): > 1000 nM; IC50 (hTRPV3; [6]): ~6000 nM
Cc1ccccc1C(O)c1ccc(N2CC[C@H](Oc3ncccc3F)C2)c(CO)c1 (stereo partly drawn) [Compound 1-231, (4-((S)-3-(3-fluoropyridin-2-yloxy)pyrrolidin-1-yl)-3-(hydroxymethyl)phenyl)(o-tolyl)methanol] | 16.3 min |  |  | > 26.8 µM |  |  | 
Cc1ccccc1C(=O)c1ccc(N2CC[C@H](Oc3ncccc3F)C2)c(CO)c1 [Compound 1-243, (S)-(4-(3-(3-fluoropyridin-2-yloxy)pyrrolidin-1-yl)-3-(hydroxymethyl)phenyl)(o-tolyl)methanone] | 6.26 min | 100 to 1000 nM | 296 nM | ~7.34 µM (≈ 2.98 µg/mL) |  |  | 
Cc1ccccc1C(=O)c1ccc(N2CC[C@H](Oc3ncccc3Cl)C2)c(CO)c1 [Compound 1-246, (S)-(4-(3-(3-chloropyridin-2-yloxy)pyrrolidin-1-yl)-3-(hydroxymethyl)phenyl)(o-tolyl)methanone] | 7.36 min | 100 to 1000 nM | 136 nM | ~1.87 µM (≈ 0.791 µg/mL) |  |  | IC50 (hTRPV3; [5]): 100 to 1000 nM; IC50 (hTRPV3; [6]): 136 nM
Cc1ccccc1C(O)c1ccc(N2CC[C@H](Oc3ncccc3Cl)C2)c(CO)c1 (stereo partly drawn) [Compound 1-247, (4-((S)-3-(3-chloropyridin-2-yloxy)pyrrolidin-1-yl)-3-(hydroxymethyl)phenyl)(o-tolyl)methanol] | 13.1 min | 100 to 1000 nM | 132 nM | > 9 µM |  |  | IC50 (hTRPV3; [5]): 100 to 1000 nM; IC50 (hTRPV3; [6]): 202 nM
CCc1ccccc1C(=O)c1ccc(N2CC[C@H](Oc3ncccc3Cl)C2)c(CO)c1 [Compound 1-251, (S)-(4-(3-(3-chloropyridin-2-yloxy)pyrrolidin-1-yl)-3-(hydroxymethyl)phenyl)(2-ethylphenyl)methanone] |  | 10 to 100 nM | 102 nM |  |  |  | Solubility Ringer ([1]; room temperature): >3.6 µM; LM T1/2 (min) (rat) ([2]; 1 μM): 6.25 (rat) min
CCc1ccccc1C(=O)c1ccc(N2CC[C@H](Oc3ncccc3Cl)C2)c(CO)c1 [Compound 1-256, (S)-(4-(3-(3-chloropyridin-2-yloxy)pyrrolidin-1-yl)-3-(hydroxymethyl)phenyl)(2-ethylphenyl)methanone] | 6.05 min | 10 to 100 nM | 50.9 nM | ~0.45 µM (≈ 0.197 µg/mL) |  |  | 
Cc1cccnc1C(=O)N1CCC(c2ccc(Oc3ccccc3C(C)C)cc2CO)C1 (centres unmarked) [Compound 2-18, (3-(2-(hydroxymethyl)-4-(2-isopropylphenoxy)phenyl)pyrrolidin-1-yl)(3-methylpyridin-2-yl)methanone] |  | 100 to 1000 nM |  |  | 7.81 min | 314 nM | 
CCc1ccccc1-c1ccc(C2CCN(C(=O)c3ccccn3)C2)c(CO)c1 (centres unmarked) [Compound 2-27, (3-(2′-ethyl-3-(hydroxymethyl)biphenyl-4-yl)pyrrolidin-1-yl)(pyridin-2-yl)methanone] |  | 10 to 100 nM |  |  | 12.9 min | 73 nM | 
CC(C)c1ccccc1Oc1ccc(C2CCN(C(=O)c3ccc(Cl)cn3)C2)c(C(N)=O)c1 (centres unmarked) [Compound 2-32, 2-(1-(5-chloropicolinoyl)pyrrolidin-3-yl)-5-(2-isopropylphenoxy)benzamide] |  | 100 to 1000 nM |  |  | 6.86 min | 677 nM | 
Cc1cccc(C(=O)N2CCC(c3ccc(Oc4ccccc4C(C)C)cc3C(N)=O)C2)n1 (centres unmarked) [Compound 2-33, 5-(2-isopropylphenoxy)-2-(1-(6-methylpicolinoyl)pyrrolidin-3-yl)benzamide] |  | 100 to 1000 nM |  |  | 11 min | 645 nM | 
CCc1ccccc1-c1ccc(C2CCN(C(=O)c3ccc(F)cn3)C2)c(C(N)=O)c1 (centres unmarked) [Compound 2-34, 2′-ethyl-4-(1-(5-fluoropicolinoyl)pyrrolidin-3-yl)biphenyl-3-carboxamide] |  | 100 to 1000 nM |  |  | 26.4 min | 337 nM | 
CC(C)c1ccccc1-c1ccc(C2CCN(C(=O)c3ncccc3Cl)C2)c(CO)c1 (centres unmarked) [Compound 2-36] |  | 10 to 100 nM |  |  | 11.2 min | 39.3 nM | 
O=C(c1cccc(Cl)n1)N1CCC(c2ccc(-c3ccccc3C3CC3)cc2CO)C1 (centres unmarked) [Compound 2-57, (6-chloropyridin-2-yl)(3-(2′-cyclopropyl-3-(hydroxymethyl)biphenyl-4-yl)pyrrolidin-1-yl)methanone] |  | < 10 nM |  |  | 32.3 min | 7.34 nM | 
CC(C)c1ccccc1Oc1ccc(C2CCN(C(=O)Cc3ccccn3)C2)c(CO)c1 (centres unmarked) [Compound 2-116] |  |  |  |  | 3.62 min | ~3500 nM | IC50 (hTRPV3; Phase 2 current, human TRPV3, read-out: hTRPV3 (nM) Phase 2): 2600 nM
